Experimental data as given in US20230227449A1, “AMIDOPYRIMIDONE DERIVATIVES” (Hoffmann-La Roche Inc., priority 2020, published 2023).

Each compound was assayed against Recombinant human Mat2a (Homo sapiens, UniProt P31153) (assay: Determination of Mat2A activity (384 well absorbance-based assay, Biomol Green)). Settings: 12.5 nM Mat2A, 100 μM ATP and Methionine, 2% DMSO, 120 minutes at RT, absorbance at 635 nm.
Recombinant human Mat2a, sequence (P31153 whole entry): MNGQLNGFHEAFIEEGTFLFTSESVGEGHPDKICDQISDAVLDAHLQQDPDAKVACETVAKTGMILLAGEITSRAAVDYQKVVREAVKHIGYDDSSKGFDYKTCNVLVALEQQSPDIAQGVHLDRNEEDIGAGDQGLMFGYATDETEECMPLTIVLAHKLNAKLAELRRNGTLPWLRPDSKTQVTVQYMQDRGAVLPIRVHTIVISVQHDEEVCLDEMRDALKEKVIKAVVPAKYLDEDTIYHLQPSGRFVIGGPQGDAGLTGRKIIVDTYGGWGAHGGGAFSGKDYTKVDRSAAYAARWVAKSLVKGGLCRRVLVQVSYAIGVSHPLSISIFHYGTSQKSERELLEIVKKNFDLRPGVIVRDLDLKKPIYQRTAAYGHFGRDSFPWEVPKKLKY
Assay type: biochemical
Outline: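 Recombinant human Mat2A (12.5 nM) was preincubated with compound for 15 min at RT in HEPES pH 7.5 buffer with 2% DMSO. The reaction was started with 100 μM each of ATP and methionine and ran 120 min at RT. Phosphate was detected with Biomol Green by absorbance at 635 nm.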
With `Nc1nc(=O)n([C@H]2CCCOC2)c2nc(C3CC3)ccc12` [Example 27, 4-amino-7-cyclopropyl-1-[(3S)-oxan-3-yl]pyrido[2,3-d]pyrimidin-2-one] the IC50 was 42 nM.
Work on `Nc1nc(=O)n([C@H]2CCC[C@H]2O)c2nc(C3CC3)ccc12` (racemic) [Example 24, 4-amino-7-cyclopropyl-1-((1SR,2RS)-2-hydroxycyclopentyl)pyrido[2,3-d]pyrimidin-2(1H)-one] yielded an IC50 of 17 nM.
With `Nc1nc(=O)n(-c2ccccc2Cl)c2nc(C3CC3)ccc12` (single isomer, unassigned) [Example 114, (+)-4-amino-1-(2-chlorophenyl)-7-cyclopropylpyrido[2,3-d]pyrimidin-2 (1H)-one] the IC50 was under 13 nM.
`CC(C1COC1)n1c(=O)nc(N)c2ccc(C3CC3)nc21` (stereo not shown) [Example 81, 4-amino-7-cyclopropyl-1-[1-(oxetan-3-yl)ethyl]pyrido[2,3-d]pyrimidin-2-one] showed an IC50 of 42 nM.
Compound `Nc1nc(=O)n(-c2ccccc2OC(F)(F)F)c2nc(C3CC3)ccc12` [Example 110, 4-amino-7-cyclopropyl-1-[2-(trifluoromethoxy)phenyl]pyrido[2,3-d]pyrimidin-2-one] has an IC50 of under 13 nM.
`Cc1c(CF)cccc1-n1c(=O)nc(N)c2ccc(C3CC3)nc21` [Example 131, 4-amino-7-cyclopropyl-1-(3-(fluoromethyl)-2-methylphenyl)pyrido[2,3-d]pyrimidin-2 (1H)-one] showed an IC50 of under 13 nM.
`Cc1ccccc1-n1c(=O)nc(N)c2cnc(C3CC3)nc21` [Example 96, 4-amino-7-cyclopropyl-1-(o-tolyl)pyrimido[4,5-d]pyrimidin-2 (1H)-one] showed an IC50 of under 13 nM.
For `Cc1ncccc1-n1c(=O)nc(O)c2ccc(C3CC3)nc21` [Example 101, 7-cyclopropyl-1-(2-methylpyridin-3-yl)pyrido[2,3-d]pyrimidine-2,4-dione], the IC50 was 40 nM.
Work on `Nc1nc(=O)n(-c2cc(F)ccc2Cl)c2nc(C3CC3)ccc12` [Example 156, 4-amino-1-(2-chloro-5-fluorophenyl)-7-cyclopropylpyrido[2,3-d]pyrimidin-2-one] yielded an IC50 of 21 nM.
Work on `Nc1nc(=O)n(-c2cccc3c2CCN3)c2nc(C3CC3)ccc12` [Example 157, 4-amino-7-cyclopropyl-1-(2,3-dihydro-1H-indol-4-yl)pyrido[2,3-d]pyrimidin-2-one] yielded an IC50 of 15 nM.
Compound `Cc1ccccc1-n1c(=O)nc(N)c2ccc(C3CC3)nc21` [Example 1, 4-amino-7-cyclopropyl-1-(o-tolyl)pyrido[2,3-d]pyrimidin-2(1H)-one] has an IC50 of under 13 nM.
In the case of `Nc1nc(=O)n(C2CCn3cncc32)c2nc(C3CC3)ccc12` (stereo not shown) [Example 112, 4-amino-7-cyclopropyl-1-(6,7-dihydro-5H-pyrrolo[1,2-c]imidazol-7-yl)pyrido[2,3-d]pyrimidin-2-one], the IC50 is reported as 39 nM.
Work on `C[C@H](c1cnco1)n1c(=O)nc(N)c2ccc(C3CC3)nc21` [Example 75, 4-amino-7-cyclopropyl-1-(1-(oxazol-5-yl)ethyl)pyrido[2,3-d]pyrimidin-2(1H)-one] yielded an IC50 of 99 nM.
`COc1nccc(F)c1-n1c(=O)nc(N)c2ccc(C3CC3)nc21` [Example 60, 4-amino-7-cyclopropyl-1-(4-fluoro-2-methoxypyridin-3-yl)pyrido[2,3-d]pyrimidin-2(1H)-one] gave an IC50 of 20 nM.
Compound `Cc1cccc(-n2c(=O)nc(N)c3ccc(C4CC4)nc32)c1C` [Example 138, 4-amino-7-cyclopropyl-1-(2,3-dimethylphenyl)pyrido[2,3-d]pyrimidin-2 (1H)-one] has an IC50 of under 13 nM.
`Nc1nc(=O)n(-c2cccnc2Cl)c2nc(C3CC3)ccc12` (single isomer, unassigned) [Example 135, (+)-4-amino-1-(2-chloropyridin-3-yl)-7-cyclopropylpyrido[2,3-d]pyrimidin-2 (1H)-one] gave an IC50 of under 13 nM.
Work on `Nc1nc(=O)n(-c2cccc(F)c2Cl)c2nc(C3CC3)ccc12` (single isomer, unassigned) [Example 116, (+)-4-amino-1-(2-chloro-3-fluorophenyl)-7-cyclopropylpyrido[2,3-d]pyrimidin-2 (1H)-one] yielded an IC50 of under 13 nM.
`Cc1c(C#N)cccc1-n1c(=O)nc(N)c2ccc(C3CC3)nc21` (single isomer, unassigned) [Example 145, (+)-3-(4-amino-7-cyclopropyl-2-oxopyrido[2,3-d]pyrimidin-1 (2H)-yl)-2-methylbenzonitrile] gave an IC50 of under 13 nM.
`Nc1nc(=O)n(C2CCOCC2)c2nc(C3CC3)ccc12` [Example 84, 4-amino-7-cyclopropyl-1-(tetrahydro-2H-pyran-4-yl)pyrido[2,3-d]pyrimidin-2(1H)-one] gave an IC50 of 210 nM.
`CCNc1ccc2c(N)nc(=O)n(-c3ccccc3C)c2c1` [Example 153, 4-amino-7-(ethylamino)-1-(o-tolyl)quinazolin-2-one] showed an IC50 of 17 nM.
Compound `CCOc1c(C#N)cccc1-n1c(=O)nc(N)c2ccc(C3CC3)nc21` [Example 20, 3-(4-amino-7-cyclopropyl-2-oxopyrido[2,3-d]pyrimidin-1(2H)-yl)-2-ethoxybenzonitrile] has an IC50 of 15 nM.
`Cc1ncccc1-n1c(=O)nc(N)c2ccc(C3CC3)cc21` [Example 86, 4-amino-7-cyclopropyl-1-(2-methylpyridin-3-yl)quinazolin-2 (1H)-one] gave an IC50 of under 13 nM.
Compound `Cc1ccccc1-n1c(=O)nc(N)c2cnc(C3CC3)cc21` [Example 52, 4-amino-7-cyclopropyl-1-(o-tolyl)pyrido[4,3-d]pyrimidin-2(1H)-one] has an IC50 of 43 nM.
In the case of `Cc1ccccc1-n1c(=O)nc(N)c2ccc(N3CC(F)(F)C3)nc21` [Example 5, 4-amino-7-(3,3-difluoroazetidin-1-yl)-1-(o-tolyl)pyrido[2,3-d]pyrimidin-2(1H)-one], the IC50 is reported as 22 nM.
Compound `Cc1cccc(-n2c(=O)nc(N)c3ccc(C4CC4)nc32)c1F` [Example 127, 4-amino-7-cyclopropyl-1-(2-fluoro-3-methylphenyl)pyrido[2,3-d]pyrimidin-2 (1H)-one] has an IC50 of 13 nM.
In the case of `C[C@@H]1OCCC[C@@H]1n1c(=O)nc(N)c2ccc(C3CC3)nc21` (racemic) [Example 121, 4-amino-7-cyclopropyl-1-[(2SR,3SR)-2-methyltetrahydropyran-3-yl]pyrido[2,3-d]pyrimidin-2-one], the IC50 is reported as 14 nM.
Work on `Cc1ncccc1-n1c(=O)nc(N)c2cc(C#N)c(C3CC3)nc21` [Example 37, 4-amino-7-cyclopropyl-1-(2-methylpyridin-3-yl)-2-oxo-1,2-dihydropyrido[2,3-d]pyrimidine-6-carbonitrile] yielded an IC50 of 15 nM.
Compound `Nc1nc(=O)n([C@@H]2CCCOC23CC3)c2nc(C3CC3)ccc12` [Example 141, 4-amino-7-cyclopropyl-1-[(8R)-4-oxaspiro[2.5]octan-8-yl]pyrido[2,3-d]pyrimidin-2-one] has an IC50 of under 13 nM.
`Cn1nccc1-n1c(=O)nc(N)c2ccc(C3CC3)nc21` [Example 44, 4-amino-7-cyclopropyl-1-(2-methylpyrazol-3-yl)pyrido[2,3-d]pyrimidin-2-one] gave an IC50 of under 13 nM.
`Cc1ncncc1-n1c(=O)nc(N)c2ccc(C3CCCC3)nc21` [Example 55, 4-amino-7-cyclopentyl-1-(4-methylpyrimidin-5-yl)pyrido[2,3-d]pyrimidin-2-one] was tested, and the IC50 was 17 nM.
`Nc1nc(=O)n(-c2cccc3[nH]ncc23)c2nc(C3CC3)ccc12` [Example 139, 4-amino-7-cyclopropyl-1-(1H-indazol-4-yl)pyrido[2,3-d]pyrimidin-2 (1H)-one] was tested, and the IC50 was under 13 nM.
